What was measured:
[1] = target: T1, human recombinant ETA receptors (Homo sapiens, UniProt P25101); assay: Inhibition of [125I]ET-1 binding to membranes of CHO cells expressing human recombinant ETA receptors; also: 2.5% DMSO
T1 construct: expressed in transfected cells; host or cells: CHO cells (microsomal membranes)
T1 sequence (P25101 21-427): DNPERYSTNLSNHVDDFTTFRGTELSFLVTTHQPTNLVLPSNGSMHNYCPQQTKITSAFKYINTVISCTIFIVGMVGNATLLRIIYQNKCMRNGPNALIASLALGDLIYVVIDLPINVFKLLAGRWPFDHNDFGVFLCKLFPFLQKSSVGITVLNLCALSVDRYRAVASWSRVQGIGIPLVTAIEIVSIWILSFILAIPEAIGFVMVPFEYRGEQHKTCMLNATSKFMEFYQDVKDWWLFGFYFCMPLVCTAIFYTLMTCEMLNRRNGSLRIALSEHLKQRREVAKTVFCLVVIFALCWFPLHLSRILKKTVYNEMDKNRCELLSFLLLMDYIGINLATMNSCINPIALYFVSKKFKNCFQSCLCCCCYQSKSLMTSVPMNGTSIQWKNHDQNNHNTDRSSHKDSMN
Description: (§1) 1) Inhibition of Endothelin Binding to Membranes from CHO Cells Carrying Human ET Receptors:
(§2) For competition binding studies, membranes of CHO cells expressing human recombinant ETA or ETB receptors were used.
(§3) The assay was performed in 200 uL 50 mM Tris/HCl buffer, pH 7.4, including 25 mM MnCl2, 1 mM EDTA and 0.5% (w/v) BSA in polypropylene microtiter plates. […] After two h, the membranes were filtered on filterplates containing GF/C filters (Unifilterplates from Canberra Packard S.A. Zürich, Switzerland). To each well, 50 uL of scintillation cocktail was added (MicroScint 20, Canberra Packard S.A. Zürich, Switzerland) and the filter plates counted in a microplate counter (TopCount, Canberra Packard S.A. Zürich, Switzerland).
(§4) All the test compounds were dissolved, diluted and added in DMSO.

[2] = target: T2, human recombinant ETB receptors (Homo sapiens, UniProt P24530); assay: Inhibition of [125I]ET-1 binding to membranes of CHO cells expressing human recombinant ETB receptors; also: 2.5% DMSO
T2 construct: expressed in transfected cells; host or cells: CHO cells (microsomal membranes)
T2 sequence (P24530 27-442): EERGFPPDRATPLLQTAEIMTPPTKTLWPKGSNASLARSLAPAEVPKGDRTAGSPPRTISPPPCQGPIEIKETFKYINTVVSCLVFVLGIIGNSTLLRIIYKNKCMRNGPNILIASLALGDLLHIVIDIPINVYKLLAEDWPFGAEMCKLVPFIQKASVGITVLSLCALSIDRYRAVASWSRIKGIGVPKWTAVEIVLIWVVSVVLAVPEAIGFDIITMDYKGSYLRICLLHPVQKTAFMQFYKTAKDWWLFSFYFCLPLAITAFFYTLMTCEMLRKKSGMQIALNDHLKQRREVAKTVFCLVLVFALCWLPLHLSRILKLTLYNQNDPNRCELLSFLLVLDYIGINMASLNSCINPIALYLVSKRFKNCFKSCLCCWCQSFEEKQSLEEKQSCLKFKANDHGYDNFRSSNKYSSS
Description: as §1, §2, §3, §4

[3] = target: T3, rat tracheal rings (ETB receptors) (Rattus norvegicus, UniProt P21451); assay: Inhibition of sarafotoxin S6c-induced contraction of isolated rat tracheal rings; assay type: cell-based; settings: contraction induced by sarafotoxin S6c, 10 min incubation with the test compound; read-out: pA2 trachea (converted)
T3 construct: The thoracic aorta or trachea were excised, dissected and cut in 3-5 mm rings; from tissue; host or cells: tracheal rings of adult Wistar rats, epithelium removed
T3 sequence (P21451 27-442): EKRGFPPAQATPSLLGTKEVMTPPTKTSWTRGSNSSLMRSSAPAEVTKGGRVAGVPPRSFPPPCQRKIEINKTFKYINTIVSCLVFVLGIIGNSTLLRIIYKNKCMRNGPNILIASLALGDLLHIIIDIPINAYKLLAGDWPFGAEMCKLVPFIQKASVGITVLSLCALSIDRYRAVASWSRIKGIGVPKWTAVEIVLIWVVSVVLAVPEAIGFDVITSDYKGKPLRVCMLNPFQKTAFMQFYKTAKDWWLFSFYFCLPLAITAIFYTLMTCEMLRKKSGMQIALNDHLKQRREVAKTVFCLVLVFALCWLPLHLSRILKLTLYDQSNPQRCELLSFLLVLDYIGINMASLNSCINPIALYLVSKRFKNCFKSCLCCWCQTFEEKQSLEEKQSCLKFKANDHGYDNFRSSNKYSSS

[4] = target: T4, rat aortic rings (ETA receptors) (Rattus norvegicus, UniProt P26684); assay: Inhibition of endothelin-1-induced contraction of isolated rat aortic rings
T4 sequence (P26684 21-426): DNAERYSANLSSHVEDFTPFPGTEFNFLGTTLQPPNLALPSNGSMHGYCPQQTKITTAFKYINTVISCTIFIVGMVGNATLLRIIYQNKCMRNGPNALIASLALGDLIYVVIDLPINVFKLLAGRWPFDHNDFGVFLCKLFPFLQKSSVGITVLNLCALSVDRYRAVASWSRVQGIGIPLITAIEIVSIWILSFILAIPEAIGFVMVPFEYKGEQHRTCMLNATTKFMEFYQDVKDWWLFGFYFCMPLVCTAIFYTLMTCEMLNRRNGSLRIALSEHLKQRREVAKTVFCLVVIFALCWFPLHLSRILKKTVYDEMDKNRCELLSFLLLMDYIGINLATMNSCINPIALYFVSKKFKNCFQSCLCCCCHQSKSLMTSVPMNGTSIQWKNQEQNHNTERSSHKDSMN

SMILES | IC50 [1] | IC50 [2] | melting point | Kb [3] | Kb [4]
COc1ccccc1Oc1c(NS(=O)(=O)c2ccc(C(C)(C)C)cc2)nc(-c2ccncc2)nc1OCC#CCOc1ncccn1 [Example 19, 4-tert.-butyl-N-[6-(4-(2-pyrimidinyloxy)-2-butynyloxy)-5-(o-methoxyphenoxy)-2-(4-pyridyl)-4-pyrimidinyl]-benzene sulfonamide] | 112 nM | 45 nM |  | 24 nM | > 10000 nM
COc1ccccc1Oc1c(NS(=O)(=O)c2ccc(C(C)C)cn2)nc(-c2ccncc2)nc1OCC#CCOC(=O)Nc1cccc(C)c1 [Example 54, m-tolyl-carbamic acid 4-[6-(5-isopropyl-pyridine-2-sulfonylamino)-5-(2-methoxy-phenoxy)-2-pyridin-4-yl-pyrimidin-4-yloxy]-but-2-ynyl ester] |  |  | 163 to 165 °C |  | 
Cc1ccc(-c2c(NS(=O)(=O)c3ccc(C(C)C)cn3)nc(-c3ccncc3)nc2OCC#CCO)cc1 [Example 11d, 5-isopropyl-N-[6-(4-hydroxy-2-butynyloxy)-5-(p-tolyl)-2-(4-pyridyl)-4-pyrimidinyl]-2-pyridine sulfonamide] | 49 nM | 97 nM |  | 93.3 nM | 89.1 nM
COCC#CCOc1nc(N2CCOCC2)nc(NS(=O)(=O)c2ccc(C(C)C)cn2)c1Oc1ccccc1OC [Example 94, 5-isopropyl-N-[6-(4-methoxy-2-butynyloxy)-5-(o-methoxyphenoxy)-2-(N-morpholino)-4-pyrimidinyl]-2-pyridine sulfonamide] | 13 nM | 107 nM |  |  | 
COc1ccccc1Oc1c(NS(=O)(=O)c2ccc(C(C)C)cn2)nc(C)nc1OCC#CCOC(=O)Nc1ccccc1 [Example 70] | 94 nM | 375 nM |  |  | 

The next lines start with results.

IC50 [1] | IC50 [2] | melting point | SMILES | Kb [3] | Kb [4]
230 nM | 44 nM |  | COc1cc(OC)nc(OCC#CCOc2nc(-c3ccncc3)nc(NS(=O)(=O)c3ccc(C(C)(C)C)cc3)c2Oc2ccccc2OC)n1 [Example 21, 4-tert.-butyl-N-[6-(4-(4,6-dimethoxy-2-pyrimidinyloxy)-2-butynyloxy)-5-(o-methoxyphenoxy)-2-(4-pyridyl)-4-pyrimidinyl]-benzene sulfonamide] |  | 
79 nM | 36 nM |  | COc1cc(OC)nc(OCC#CCOc2nc(-c3ccncc3)nc(NS(=O)(=O)c3ccc(C(C)C)cn3)c2Oc2ccccc2OC)n1 [Example 18, 5-isopropyl-N-[6-(4-(4,6-dimethoxy-2-pyrimidinyloxy)-2-butynyloxy)-5-(o-methoxyphenoxy)-2-(4-pyridyl)-4-pyrimidinyl]-2-pyridine sulfonamide] |  | 

— patent US6720322B2, “Butyne diol derivatives” (Actelion Pharamceuticals Ltd., priority 1999, dated 2004)
